Laboratory results taken from the NIST ThermoML archive (doi:10.1016/j.fluid.2016.07.018).
Numbers after ± are expanded uncertainties.

Conditions: Liquid
[1] = 313.15 K, gas saturation method
[2] = 333.15 K, gas saturation method
[3] = 353.15 K, gas saturation method
[4] = 373.15 K, gas saturation method
[5] = 393.15 K, gas saturation method
[6] = 423.15 K, gas saturation method

| Compound | vapor or sublimation pressure [1] [kPa] | vapor or sublimation pressure [2] [kPa] | vapor or sublimation pressure [3] [kPa] | vapor or sublimation pressure [4] [kPa] | vapor or sublimation pressure [5] [kPa] | vapor or sublimation pressure [6] [kPa] | vapor or sublimation pressure (381.51 K, Closed cell (Static) method) [kPa] | vapor or sublimation pressure (391.7 K, Closed cell (Static) method) [kPa] | vapor or sublimation pressure (401.69 K, Closed cell (Static) method) [kPa] | vapor or sublimation pressure (411.58 K, Closed cell (Static) method) [kPa] | vapor or sublimation pressure (421.43 K, Closed cell (Static) method) [kPa] |
| --- | --- | --- | --- | --- | --- | --- | --- | --- | --- | --- | --- |
| CC(C)COC(=O)c1ccccc1C(=O)OCC(C)C [diisobutyl 1,2-benzenedioate] | 4.1e-05 ± 3e-06 | 0.000436 ± 4.3e-05 | 0.002796 ± 0.00025 | 0.01285 ± 0.001 | 0.0445 ± 0.0035 | 0.2156 ± 0.017 | – | – | – | – | – |
| CCCCOC(=O)c1ccccc1C(=O)OCCCC [dibutyl phthalate] | 2.4e-05 ± 2e-06 | 0.000195 ± 1.5e-05 | 0.001289 ± 0.0001 | 0.006211 ± 0.00057 | 0.02452 ± 0.0019 | 0.151 ± 0.012 | 0.0127 ± 0.0007 | 0.0248 ± 0.0009 | 0.0461 ± 0.0013 | 0.0824 ± 0.0021 | 0.1441 ± 0.0028 |
